This passage reports IC50 and inhibition results from ChEMBL document CHEMBL5143568, “Identification of novel xanthine oxidase inhibitors via virtual screening with enhanced characterization of molybdopterin binding groups” (Eur J Med Chem, 2022).

T1 sequence (P47989 whole entry): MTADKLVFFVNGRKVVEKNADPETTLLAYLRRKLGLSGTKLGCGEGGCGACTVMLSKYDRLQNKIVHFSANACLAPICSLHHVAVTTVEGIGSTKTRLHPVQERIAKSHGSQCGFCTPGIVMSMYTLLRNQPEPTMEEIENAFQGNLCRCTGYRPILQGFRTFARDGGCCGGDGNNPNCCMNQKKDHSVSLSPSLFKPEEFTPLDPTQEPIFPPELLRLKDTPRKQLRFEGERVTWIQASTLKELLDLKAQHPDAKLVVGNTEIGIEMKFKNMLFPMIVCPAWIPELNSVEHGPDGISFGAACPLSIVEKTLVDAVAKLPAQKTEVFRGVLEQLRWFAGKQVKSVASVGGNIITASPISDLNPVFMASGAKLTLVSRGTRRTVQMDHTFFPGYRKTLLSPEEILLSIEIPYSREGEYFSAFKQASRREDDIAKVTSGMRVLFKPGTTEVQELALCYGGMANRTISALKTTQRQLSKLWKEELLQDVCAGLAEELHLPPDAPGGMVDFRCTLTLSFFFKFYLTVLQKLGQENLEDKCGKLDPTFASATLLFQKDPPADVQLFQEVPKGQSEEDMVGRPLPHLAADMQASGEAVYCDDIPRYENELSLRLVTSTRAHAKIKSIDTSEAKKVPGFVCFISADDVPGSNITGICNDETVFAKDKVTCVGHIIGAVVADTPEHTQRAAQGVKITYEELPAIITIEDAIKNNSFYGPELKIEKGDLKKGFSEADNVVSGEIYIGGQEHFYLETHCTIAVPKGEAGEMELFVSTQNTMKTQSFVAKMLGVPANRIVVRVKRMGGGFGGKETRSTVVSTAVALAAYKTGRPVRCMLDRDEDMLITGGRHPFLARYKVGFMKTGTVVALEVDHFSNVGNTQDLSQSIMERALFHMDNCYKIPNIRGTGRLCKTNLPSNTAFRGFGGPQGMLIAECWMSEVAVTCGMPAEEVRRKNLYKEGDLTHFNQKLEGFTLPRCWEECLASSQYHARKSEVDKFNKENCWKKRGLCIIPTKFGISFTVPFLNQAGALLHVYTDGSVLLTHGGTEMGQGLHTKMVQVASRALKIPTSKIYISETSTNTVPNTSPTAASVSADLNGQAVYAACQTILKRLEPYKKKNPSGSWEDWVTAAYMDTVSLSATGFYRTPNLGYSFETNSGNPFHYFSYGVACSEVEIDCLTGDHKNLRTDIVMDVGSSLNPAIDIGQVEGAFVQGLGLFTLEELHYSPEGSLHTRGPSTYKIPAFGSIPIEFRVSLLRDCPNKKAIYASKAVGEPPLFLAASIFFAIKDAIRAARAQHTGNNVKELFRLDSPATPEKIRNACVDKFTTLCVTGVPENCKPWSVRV

One experiment addresses T1, Xanthine dehydrogenase/oxidase (Homo sapiens, UniProt P47989). The experiment in a line: Inhibition of xanthine oxidase (unknown origin) measured by spectrophotometric analysis.
For the compound `NC1=NC(=O)/C(=C/c2cccc(F)c2)S1`, the IC50 is 1020 nM. On to `Cc1nc(-c2ccc(OCC(C)C)c(C#N)c2)sc1C(=O)O` [FEBUXOSTAT], for which the IC50 worked out at 2.92 nM.

Another experiment deals with T1, Xanthine dehydrogenase/oxidase. Put plainly: Inhibition of xanthine oxidase (unknown origin) at 0.1 uM measured by spectrophotometric analysis relative to control.
As to `Cc1nc(-c2ccc(OCC(C)C)c(C#N)c2)sc1C(=O)O` [FEBUXOSTAT], the inhibition at 0.1 µM came out at 102%.

A further experiment shares this target. Put plainly: Inhibition of xanthine oxidase (unknown origin) at 10 uM measured by spectrophotometric analysis relative to control.
Regarding `Cc1ccc(C(=O)Oc2ccc(Br)cc2/C=C2\SC(N)=NC2=O)cc1`, the inhibition at 10 µM is less than 40%. On to `Cc1ccc(C(=O)Oc2cccc(/C=C3\SC(N)=NC3=O)c2)cc1`, for which the inhibition at 10 µM is less than 40%. For the compound `NC1=NC(=O)/C(=C/c2cccc(F)c2)S1`, the inhibition at 10 µM came to 91.5%. For the compound `Cc1ccc(Cl)c2c1NC(=O)/C2=C1/SC(N)=NC1=O`, the inhibition at 10 µM is less than 40%.

For the compound `O=C1N=C(S)S/C1=C/c1cc(Cl)ccc1O`, the inhibition at 10 µM is less than 40%. With `NC1=NC(=O)/C(=C/c2cc(Br)cc(Br)c2OCc2ccc(Cl)cc2Cl)S1`, the inhibition at 10 µM was less than 40%.

Consider `COc1ccc(/C=C2/SC(N)=NC2=O)cc1`, for which the inhibition at 10 µM was less than 40%. Consider `COc1ccc(/C=C2\SC(=S)NC2=O)cc1OC`, for which the inhibition at 10 µM came to 44.4%.

On to `N=C1SCC(=O)N1c1ncc(OCc2ccc(Cl)cc2Cl)s1`, for which the inhibition at 10 µM was less than 40%. The same measure, in the same setting: the figure for `COc1cc(/C=C2/SC(S)=NC2=O)ccc1Cc1ccccc1Cl` is less than 40%.
